In the Kinase Knowledgebase extract (Sharma et al. 2016):

Target: MAPK14;MAPK11;MAPK12 (human) (UniProt Q16539)
Assay: Inhibition of p38 Kinase Activity

`Cc1ccc(C(N)=O)cc1Nc1nc(N[C@H]2CCN(Cc3cccc(O)c3)C2)nc(N(C)CC(C)C)n1` and `COc1ccccc1CN1CC[C@@H](Nc2nc(Nc3cc(C(N)=O)ccc3C)nc(N(C)CC(C)C)n2)C1` cannot be ordered by IC50: less than 1 µM for the first, less than 1 µM for the second.

`CC(=O)NCc1ccc(C)c(Nc2nc(N[C@H]3CCNC3)nc(N(C)CC(C)(C)C)n2)c1` and `Cc1ccc(C(=O)NCc2ccccc2)cc1Nc1nc(N[C@H]2CCNC2)nc(N(C)CC(C)(C)C)n1` cannot be ordered by IC50: less than 1 µM for the first, less than 1 µM for the second.

`Cc1ccc(C(N)=O)cc1Nc1nc(NCC2(C)CCCC2)nc(N[C@H]2CCNC2)n1` and `Cc1ccc(C(N)=O)cc1Nc1nc(N[C@H]2CCNC2)nc(N(C)CC(C)C)n1` cannot be ordered by IC50: less than 1 µM for the first, less than 1 µM for the second.

`CONC(=O)c1ccc(C)c(Nc2nc(N(C)CC(C)(C)C)nc(N3CCNCC3)n2)c1` and `CONC(=O)c1ccc(C)c(Nc2nc(N(C)C)nc(N(C)CC(C)(C)C)n2)c1` cannot be ordered by IC50: less than 1 µM for the first, less than 1 µM for the second.

`Cc1ccc(C(N)=O)cc1Nc1nc(NC2CCCNC2)nc(N(C)CC(C)(C)C)n1` (stereo not drawn) and `CCN(CC(C)(C)C)c1nc(Nc2cc(C(N)=O)ccc2C)nc(N[C@H]2CCNC2)n1` cannot be ordered by IC50: less than 1 µM for the first, less than 1 µM for the second.

`c1ccc2c(c1)CCN(c1nc(Nc3ccc4ncsc4c3)nc(N3CCNCC3)n1)C2` and `CC(CN(C)c1nc(Nc2ccc3ncsc3c2)nc(N2CCNCC2)n1)c1ccccc1` (stereo not drawn) cannot be ordered by IC50: less than 10 µM for the first, less than 10 µM for the second.

`CONC(=O)c1ccc(C)c(Nc2nc(N[C@H]3CCN(C)C3)nc(N(C)CC(C)(C)C)n2)c1` and `Cc1ccc(C(N)=O)cc1Nc1nc(N[C@H]2CCN(C)C2)nc(N(C)CC(C)(C)C)n1` cannot be ordered by IC50: less than 1 µM for the first, less than 1 µM for the second.

`CC1(C)[C@H]2CCC(CNc3nc(Cl)nc(Nc4ccc(S(=O)(=O)Nc5ncccn5)cc4)n3)[C@@H]1C2` (stereo partly drawn) and `CNC(=O)C1CCN(c2nc(NC[C@@H]3CC[C@@H]4C[C@H]3C4(C)C)nc(Nc3ccc4ncsc4c3)n2)CC1` cannot be ordered by IC50: less than 10 µM for the first, less than 10 µM for the second.

`Cc1ccccc1NC(=O)N1CC2CC1CN2c1nc(NCC(C)c2ccccc2)nc(Nc2ccc3ncsc3c2)n1` (stereo not drawn) and `CC(C)NC(=O)N1CC2CC1CN2c1nc(NCC(C)c2ccccc2)nc(Nc2ccc3ncsc3c2)n1` (stereo not drawn) cannot be ordered by IC50: less than 10 µM for the first, less than 10 µM for the second.

`CC1(C)[C@H]2CCC(COc3nc(O)nc(Nc4ccc5ncsc5c4)n3)[C@@H]1C2` (stereo partly drawn) and `CC1(C)C2CCC(CNc3nc(Nc4ccc5ncsc5c4)nc(N4CCN(C(=O)CCC(=O)O)CC4)n3)C1C2` (stereo not drawn) cannot be ordered by IC50: less than 10 µM for the first, less than 10 µM for the second.

`Cc1ccc(-c2nn(C)c(=O)[nH]2)cc1Nc1nc(N(C)CC(C)(C)C)nc(N2CCCN(C)CC2)n1` and `Cc1ccc(C(N)=O)cc1Sc1nc(N(C)CC(C)(C)C)nc(N2CCCN(C)CC2)n1` cannot be ordered by IC50: less than 1 µM for the first, less than 30 µM for the second.

`Cc1ccc(C(N)=O)cc1Nc1nc(NCCc2ccc(O)cc2)nc(N[C@H]2CCNC2)n1` and `Cc1ccc(C(=O)Nc2cccc(N(C)C)c2)cc1Nc1nc(N[C@H]2CCNC2)nc(N(C)CC(C)C)n1` cannot be ordered by IC50: less than 1 µM for the first, less than 1 µM for the second.

`CCONC(=O)c1ccc(C)c(Nc2cc(N3CCCN(C)CC3)nc(N(C)CC(C)(C)C)n2)c1` and `CCOC(=O)Nc1ccc(C)c(Nc2nc(NCCN3CCCC3)nc(N(C)CC(C)(C)C)n2)c1` cannot be ordered by IC50: less than 1 µM for the first, less than 1 µM for the second.

`Cc1ccc(C(N)=O)cc1Nc1nc(N[C@@H]2CCCC[C@@H]2N)nc(N(C)CC(C)(C)C)n1` and `Cc1ccc(C(N)=O)cc1Nc1nc(N[C@H]2CCCC[C@H]2O)nc(N(C)CC(C)C)n1` cannot be ordered by IC50: less than 1 µM for the first, less than 1 µM for the second.

`CNC1CCN(c2cc(NCCOC(C)C)nc(-n3cnc4cc(C)ccc43)n2)C1` (stereo not drawn) and `CNC1CCN(c2cc(NCCOC(C)C)nc(-n3cnc4ccc(C)cc43)n2)C1` (stereo not drawn) cannot be ordered by IC50: less than 10 µM for the first, less than 10 µM for the second.

`CC1(C)C2CCC(CNc3nc(Nc4ccc5ncoc5c4)nc(N4CCN(C(=O)CCC(=O)O)CC4)n3)C1C2` (stereo not drawn) and `CC(CNc1nc(Nc2ccc3ncsc3c2)nc(N2CCN(C(=N)N)CC2)n1)c1ccccc1` (stereo not drawn) cannot be ordered by IC50: less than 10 µM for the first, less than 10 µM for the second.

`CC(C)CN(C)c1nc(NC2CCN(CC3CCNCC3)C2)nc(NC2CC(C(N)=O)CCC2C)n1` (stereo not drawn) and `COCCC(=O)N1CC[C@@H](Nc2nc(Nc3cc(C(N)=O)ccc3C)nc(N(C)CC(C)C)n2)C1` cannot be ordered by IC50: less than 1 µM for the first, less than 1 µM for the second.

`CNC(=O)c1ccc(C)c(Sc2nc(N[C@@H]3CCNC3)nc(N(C)CC(C)(C)C)n2)c1` and `CCCNC(=O)c1ccc(C)c(Nc2nc(O[C@H]3CCNC3)nc(N(C)CC(C)(C)C)n2)c1` cannot be ordered by IC50: less than 30 µM for the first, less than 1 µM for the second.

`CNCCN(C)c1nc(NCc2ccc(Cl)c(Cl)c2)nc(Nc2ccc3ncsc3c2)n1` and `CC(CNc1nc(Nc2ccc3ncsc3c2)nc(N(C)CCCN(C)C(=S)NC2CCCCC2)n1)c1ccccc1` (stereo not drawn) cannot be ordered by IC50: less than 10 µM for the first, less than 10 µM for the second.

`CNCCN(C)c1nc(NC[C@@H](C)c2ccccc2)nc(-n2cnc3ccccc32)n1` and `CNC(=O)c1ccc(C)c(Oc2nc(NCc3ccccn3)nc(N(C)CC(C)(C)C)n2)c1` cannot be ordered by IC50: less than 10 µM for the first, less than 30 µM for the second.

`Cc1ccc(C(N)=O)cc1Nc1nc(N[C@@H]2CCNC2)nc(OC[C@@H]2CC[C@H]3C[C@H]2C3(C)C)n1` and `CNC(=O)c1ccc(C)c(Nc2nc(N[C@H]3CCN(Cc4ccccc4OC)C3)nc(N(C)CC(C)C)n2)c1` cannot be ordered by IC50: less than 1 µM for the first, less than 1 µM for the second.

For `Cc1cc2c(cc1Cl)C(=O)N2c1nc(N[C@H]2CCNC2)nc(N(C)CC(C)C)n1`, the IC50 was less than 1 µM.
